The values that follow are results of earlier work, collected in US20260355230A1, “SODIUM BICARBONATE PRODUCT FOR CHILDBIRTH LABOR” (LAMINARIA GROUP AB, priority 2023, published 2026).

For data set [1] the following is noted: 4.26 g sodium bicarbonate dissolved in water, oral.
The conditions of data set [2]: large amounts, particularly as an aqueous solution.

As to `O=C([O-])O.[Na+]` [sodium bicarbonate], the “pH in maternal blood” value in data set [1] is listed as “increased significantly”. In data set [1] (vs untreated group), the fetal outcome is reported as “a difference in fetal outcome was shown between the two groups” and the “frequency of spontaneous vaginal deliveries” value is on record as “substantially higher”. For the same compound, in data set [1] (vs untreated group, AFL >10.1 mmol/L), the AFL levels entry was “fell significantly”. Moreover, the gastrointestinal side-effect result in data set [2] is listed as “acute gastrointestinal (GI) distress”.
